According to PubChem BioAssay (NCI):
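Following 48 hours of exposure in 96-well plates, responses at five concentrations were used to interpolate endpoints linearly. TGI denotes the concentration required for complete inhibition of growth.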

Legend:
Test in all cases: NCI tumour cell line growth inhibition, 48 h
MDA-MB-435 = system: MDA-MB-435
RXF 393 renal = system: RXF 393 renal
ACHN renal = system: ACHN renal
OVCAR-4 ovarian = system: OVCAR-4 ovarian
KM12 colon = system: KM12 colon
LOX IMVI melanoma = system: LOX IMVI melanoma
SN12C renal = system: SN12C renal
NCI-H23 lung = system: NCI-H23 lung
NCI-H522 lung = system: NCI-H522 lung
HL-60(TB) leukemia = system: HL-60(TB) leukemia
A549 NSCLC = system: A549 NSCLC
KM20L2 colon = system: KM20L2 colon
SK-MEL-28 melanoma = system: SK-MEL-28 melanoma
RPMI-8226 leukemia = system: RPMI-8226 leukemia
SF-268 CNS = system: SF-268 CNS
786-0 renal = system: 786-0 renal
T-47D breast = system: T-47D breast
LXFL 529 NSCLC = system: LXFL 529 NSCLC
SF-295 CNS = system: SF-295 CNS
MOLT-4 leukemia = system: MOLT-4 leukemia
HCC-2998 colon = system: HCC-2998 colon
U251 CNS = system: U251 CNS
HCT-116 colon = system: HCT-116 colon
NCI-H460 lung = system: NCI-H460 lung
MDA-N = system: MDA-N
HT29 colon = system: HT29 colon
NCI/ADR-RES ovarian = system: NCI/ADR-RES ovarian
HOP-62 NSCLC = system: HOP-62 NSCLC
IGROV1 ovarian = system: IGROV1 ovarian
HCT-15 colon = system: HCT-15 colon
M14 melanoma = system: M14 melanoma
K-562 leukemia = system: K-562 leukemia
UACC-257 melanoma = system: UACC-257 melanoma
HOP-92 NSCLC = system: HOP-92 NSCLC
COLO 205 colon = system: COLO 205 colon
EKVX NSCLC = system: EKVX NSCLC
DU-145 prostate = system: DU-145 prostate
SF-539 CNS = system: SF-539 CNS
OVCAR-3 ovarian = system: OVCAR-3 ovarian
SNB-75 CNS = system: SNB-75 CNS
MDA-MB-231 breast = system: MDA-MB-231 breast
A498 renal = system: A498 renal
CCRF-CEM leukemia = system: CCRF-CEM leukemia
SK-OV-3 ovarian = system: SK-OV-3 ovarian
SK-MEL-2 melanoma = system: SK-MEL-2 melanoma
SR leukemia = system: SR leukemia
SNB-78 CNS = system: SNB-78 CNS
OVCAR-5 ovarian = system: OVCAR-5 ovarian
SK-MEL-5 melanoma = system: SK-MEL-5 melanoma
MCF7 breast = system: MCF7 breast
MALME-3M melanoma = system: MALME-3M melanoma
UACC-62 melanoma = system: UACC-62 melanoma
SW-620 colon = system: SW-620 colon
PC-3 prostate = system: PC-3 prostate
HS 578T breast = system: HS 578T breast
XF 498 CNS = system: XF 498 CNS
BT-549 breast = system: BT-549 breast
CAKI-1 renal = system: CAKI-1 renal
SNB-19 CNS = system: SNB-19 CNS
UO-31 renal = system: UO-31 renal
OVCAR-8 ovarian = system: OVCAR-8 ovarian
NCI-H226 lung = system: NCI-H226 lung
TK-10 renal = system: TK-10 renal
DMS 273 small cell lung = system: DMS 273 small cell lung

CN(C)C(=S)NC(=S)Nc1ccc2ccccc2c1
TGI (MDA-MB-435): 68 µM
TGI (RXF 393 renal): 65.8 µM
TGI (ACHN renal): > 83 µM
TGI (OVCAR-4 ovarian): > 100 µM
TGI (KM12 colon): 37.6 µM
TGI (LOX IMVI melanoma): 19.6 µM
TGI (SN12C renal): 31.9 µM
TGI (NCI-H23 lung): 43.9 µM
TGI (NCI-H522 lung): 32 µM
TGI (HL-60(TB) leukemia): 51.7 µM
TGI (A549 NSCLC): > 31.5 µM
TGI (KM20L2 colon): 23.7 µM
TGI (SK-MEL-28 melanoma): 40.3 µM
TGI (RPMI-8226 leukemia): 45 µM
TGI (SF-268 CNS): 47.3 µM
TGI (786-0 renal): > 64.8 µM
TGI (T-47D breast): 46 µM
TGI (LXFL 529 NSCLC): 21.9 µM
TGI (SF-295 CNS): 18.8 µM
TGI (MOLT-4 leukemia): 34.4 µM
TGI (HCC-2998 colon): 36.6 µM
TGI (U251 CNS): > 46.9 µM
TGI (HCT-116 colon): 27 µM
TGI (NCI-H460 lung): 22.4 µM
TGI (MDA-N): 42.1 µM
TGI (HT29 colon): 25.3 µM
TGI (NCI/ADR-RES ovarian): 59.6 µM
TGI (HOP-62 NSCLC): 46.2 µM
TGI (IGROV1 ovarian): 34.6 µM
TGI (HCT-15 colon): 59.9 µM
TGI (M14 melanoma): 50.4 µM
TGI (K-562 leukemia): 23.3 µM
TGI (UACC-257 melanoma): 24.2 µM
TGI (HOP-92 NSCLC): 48.1 µM
TGI (COLO 205 colon): 39 µM
TGI (EKVX NSCLC): 51.1 µM
TGI (DU-145 prostate): 77.9 µM
TGI (SF-539 CNS): 31.6 µM
TGI (OVCAR-3 ovarian): 57.8 µM
TGI (SNB-75 CNS): 62.5 µM
TGI (MDA-MB-231 breast): 48.1 µM
TGI (A498 renal): 48.3 µM
TGI (CCRF-CEM leukemia): 10.5 µM
TGI (SK-OV-3 ovarian): 55.3 µM
TGI (SK-MEL-2 melanoma): 41.6 µM
TGI (SR leukemia): 35.8 µM
TGI (SNB-78 CNS): 77.5 µM
TGI (OVCAR-5 ovarian): 60.1 µM
TGI (SK-MEL-5 melanoma): 25 µM
TGI (MCF7 breast): 37.1 µM
TGI (MALME-3M melanoma): 35.1 µM
TGI (UACC-62 melanoma): 26.9 µM
TGI (SW-620 colon): > 75.2 µM
TGI (PC-3 prostate): 38.3 µM
TGI (HS 578T breast): 97.8 µM
TGI (XF 498 CNS): 33.3 µM
TGI (BT-549 breast): 53.9 µM
TGI (CAKI-1 renal): 65.3 µM
TGI (SNB-19 CNS): > 72.1 µM
TGI (UO-31 renal): 48 µM
TGI (OVCAR-8 ovarian): 68.8 µM
TGI (NCI-H226 lung): 31.5 µM
TGI (TK-10 renal): > 89.4 µM
TGI (DMS 273 small cell lung): 14.1 µM
